Experimental data reported in US8796458B2, “Cyclohexylamine isoquinolone derivatives” (Sanofi, priority 2005, dated 2014).

What follows are molecules tested against T1, ROCKII or ROKα (Homo sapiens, UniProt O75116) (assay: Determination of Rho kinase inhibition (33P-ATP Flash Plate assay)). Conditions: ATP 40 μM, respective form (salt or free base) as obtained in the examples.
T1 construct: purchased Upstate 14-451
Format: biochemical
Procedure: Determination of Rho Kinase Inhibition
To measure Rho-kinase inhibition, IC50 values were determined according to the following protocol:
Buffer: 25 mM Tris pH7.5; 0.02% BSA; 5% Glycerol; 0.008% Triton X100; 2% DMSO, 1 mM DTT; 1 mM MgCl2; 0.5 μCi/well γ^33P ATP
Enzyme: ROCKII or ROKα) (Upstate, Catalog #14-451) 0.1 ng/μl
Final concentration of ATP in reaction mixture 40 μM
Biotinylated substrate, diluted to 0.25 μM with buffer described above (without ATP) • 1. 10 μl Tris buffer (±Inhibitor) • 2. Add 30 μL of enzyme solution • 3. Start the reaction with 30 μL of mix substrate/ATP/ATP33 • 4. Incubate for 20 min at room temperature • 5. Stop reaction with 30 μL of 50 mM EDTA • 6. Transfer 50 μL of stopped solution to Streptavidin Flash Plate plus, Perkin Elmer, SMP 103A • 7. Incubate for 30 min at RT • 8. Wash 4 times with 300 μl of PBS/0.1% Tween 20 • 9. Radioactivity in the well was determined
The following products/compounds were tested in said assay by using the respective form (salt or free base) obtained as in the examples described above and the following activities were measured.

T1 sequence (O75116 whole entry): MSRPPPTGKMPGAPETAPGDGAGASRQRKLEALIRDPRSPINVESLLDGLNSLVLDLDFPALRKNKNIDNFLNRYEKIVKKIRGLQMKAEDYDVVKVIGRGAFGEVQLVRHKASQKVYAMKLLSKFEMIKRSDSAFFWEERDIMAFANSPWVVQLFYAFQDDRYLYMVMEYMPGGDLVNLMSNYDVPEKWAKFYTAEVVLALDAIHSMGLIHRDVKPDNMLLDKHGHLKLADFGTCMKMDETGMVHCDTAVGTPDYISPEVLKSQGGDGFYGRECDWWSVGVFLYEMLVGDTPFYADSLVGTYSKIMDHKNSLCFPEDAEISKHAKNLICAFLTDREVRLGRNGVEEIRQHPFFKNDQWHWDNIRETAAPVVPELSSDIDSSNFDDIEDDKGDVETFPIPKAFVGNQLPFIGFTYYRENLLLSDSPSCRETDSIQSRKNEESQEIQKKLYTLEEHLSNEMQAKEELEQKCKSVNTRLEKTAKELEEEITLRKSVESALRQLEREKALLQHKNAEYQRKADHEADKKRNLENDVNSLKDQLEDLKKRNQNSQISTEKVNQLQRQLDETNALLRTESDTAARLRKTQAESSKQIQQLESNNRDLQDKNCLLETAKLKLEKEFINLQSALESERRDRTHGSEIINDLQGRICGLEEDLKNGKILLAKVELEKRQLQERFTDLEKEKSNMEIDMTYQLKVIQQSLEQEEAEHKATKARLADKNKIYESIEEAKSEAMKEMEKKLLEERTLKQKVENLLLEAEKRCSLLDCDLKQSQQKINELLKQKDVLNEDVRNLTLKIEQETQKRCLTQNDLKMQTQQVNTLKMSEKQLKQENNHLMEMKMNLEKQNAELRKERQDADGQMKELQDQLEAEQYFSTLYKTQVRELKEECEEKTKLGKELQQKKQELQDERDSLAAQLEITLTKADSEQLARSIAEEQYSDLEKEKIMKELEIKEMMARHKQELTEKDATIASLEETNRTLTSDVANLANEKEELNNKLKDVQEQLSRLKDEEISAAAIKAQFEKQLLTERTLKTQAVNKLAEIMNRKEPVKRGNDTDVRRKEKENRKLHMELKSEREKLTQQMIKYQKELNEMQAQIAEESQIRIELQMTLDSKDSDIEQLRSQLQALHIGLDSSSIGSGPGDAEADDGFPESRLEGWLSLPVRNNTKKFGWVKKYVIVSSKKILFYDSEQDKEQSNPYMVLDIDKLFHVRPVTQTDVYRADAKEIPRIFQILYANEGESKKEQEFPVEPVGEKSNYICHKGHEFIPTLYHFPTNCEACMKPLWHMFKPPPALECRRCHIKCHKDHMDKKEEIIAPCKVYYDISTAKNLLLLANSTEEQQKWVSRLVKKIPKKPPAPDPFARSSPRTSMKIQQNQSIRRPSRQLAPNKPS

Row | pIC50 | Compound
1 | +++++ (6.0≦pIC50) | N[C@H]1CC[C@@H](Oc2cc3cc[nH]c(=O)c3cc2Cl)CC1 [Example 10, 6-(cis-4-Amino-cyclohexyloxy)-7-chloro-2H-isoquinolin-1-one]
2 | +++++ (6.0≦pIC50) | N[C@H]1CC[C@@H](Oc2ccc3c(=O)[nH]ccc3c2Cl)CC1 [Example 11, 6-(cis-4-Amino-cyclohexyloxy)-5-chloro-2H-isoquinolin-1-one]
3 | +++++ (6.0≦pIC50) | O=c1[nH]ccc2cc(O[C@H]3CC[C@@H](NC4CC4)CC3)c(Cl)cc12 [Example 12, 7-Chloro-6-(cis-4-cyclopropylamino-cyclohexyloxy)-2H-isoquinolin-1-one]
4 | +++++ (6.0≦pIC50) | O=c1[nH]ccc2cc(O[C@H]3CC[C@@H](N(C4CC4)C4CC4)CC3)c(Cl)cc12 [Example 13, 7-Chloro-6-(cis-4-dicyclopropylamino-cyclohexyloxy)-2H-isoquinolin-1-one]
5 | +++++ (6.0≦pIC50) | N[C@H]1CC[C@H](Oc2cc3cc[nH]c(=O)c3cc2Cl)CC1 [Example 14, 6-(trans-4-Amino-cyclohexyloxy)-7-chloro-isoquinolin-1-ol]
6 | +++++ (6.0≦pIC50) | N[C@H]1CC[C@H](Oc2ccc3c(=O)[nH]ccc3c2)CC1 [Example 20, trans-6-(4-Amino-cyclohexyloxy)-2H-isoquinolin-1-one]
7 | +++++ (6.0≦pIC50) | CCN[C@H]1CC[C@@H](Oc2cc3cc[nH]c(=O)c3cc2Cl)CC1 [Example 29]
8 | +++++ (6.0≦pIC50) | O=c1[nH]ccc2cc(O[C@H]3CC[C@@H](NCc4cccc(Cl)c4)CC3)c(Cl)cc12 [Example 37]
9 | +++++ (6.0≦pIC50) | O=c1[nH]ccc2cc(O[C@H]3CC[C@@H](N(CC4CC4)CC4CC4)CC3)c(Cl)cc12 [Example 41]
10 | +++++ (6.0≦pIC50) | CCCN[C@H]1CC[C@@H](Oc2ccc3c(=O)[nH]ccc3c2Cl)CC1 [Example 44]
11 | +++++ (6.0≦pIC50) | CCCCN[C@H]1CC[C@@H](Oc2ccc3c(=O)[nH]ccc3c2Cl)CC1 [Example 45]
12 | +++++ (6.0≦pIC50) | CC(C)N[C@H]1CC[C@@H](Oc2ccc3c(=O)[nH]ccc3c2Cl)CC1 [Example 46]
13 | +++++ (6.0≦pIC50) | O=c1[nH]ccc2c(Cl)c(O[C@H]3CC[C@@H](NCC4CC4)CC3)ccc12 [Example 48]
14 | ++++ (5.0≦pIC50<6.0) | CCCCN(CCCC)[C@H]1CC[C@@H](Oc2ccc3c(=O)[nH]ccc3c2Cl)CC1 [Example 53]
15 | +++++ (6.0≦pIC50) | CCN(CC)[C@H]1CC[C@H](Oc2cc3cc[nH]c(=O)c3cc2Cl)CC1 [Example 56]
16 | +++++ (6.0≦pIC50) | CCCCN[C@H]1CC[C@H](Oc2cc3cc[nH]c(=O)c3cc2Cl)CC1 [Example 58]
17 | +++++ (6.0≦pIC50) | CC(C)CN(CC(C)C)[C@H]1CC[C@H](Oc2cc3cc[nH]c(=O)c3cc2Cl)CC1 [Example 65]
18 | ++++ (5.0≦pIC50<6.0) | O=c1[nH]ccc2cc(O[C@H]3CC[C@H](N(CC4CC4)CC4CC4)CC3)c(Cl)cc12 [Example 66]
19 | +++++ (6.0≦pIC50) | O=c1[nH]ccc2cc(O[C@H]3CC[C@@H](NCc4ccccc4)CC3)c(Cl)cc12 [Example 67]
20 | +++++ (6.0≦pIC50) | O=c1[nH]ccc2cc(O[C@H]3CC[C@@H](NCc4cc(Cl)cc(Cl)c4)CC3)c(Cl)cc12 [Example 69]
21 | +++++ (6.0≦pIC50) | O=c1[nH]ccc2cc(O[C@H]3CC[C@@H](NCc4cc(Cl)ccc4Cl)CC3)c(Cl)cc12 [Example 70]
22 | +++++ (6.0≦pIC50) | O=c1[nH]ccc2cc(O[C@H]3CC[C@@H](NCc4ccc(Cl)cc4Cl)CC3)c(Cl)cc12 [Example 71]
23 | +++++ (6.0≦pIC50) | O=c1[nH]ccc2cc(O[C@H]3CC[C@@H](NCc4ccc5ccccc5c4)CC3)c(Cl)cc12 [Example 77]
24 | +++++ (6.0≦pIC50) | O=c1[nH]ccc2cc(O[C@H]3CC[C@@H](NCC4CC4)CC3)ccc12 [Example 125, 6-[cis-4-(Cyclopropylmethyl-amino)-cyclohexyloxy]-2H-isoquinolin-1-one]
25 | +++++ (6.0≦pIC50) | Cc1cc2c(=O)[nH]ccc2cc1O[C@H]1CC[C@H](N)CC1 [Example 137, 6-(trans-4-Amino-cyclohexyloxy)-7-methyl-2H-isoquinolin-1-one]
26 | +++++ (6.0≦pIC50) | Cc1cc2c(=O)[nH]ccc2cc1O[C@H]1CC[C@@H](N)CC1.Cl [Example 138, 6-(cis-4-Amino-cyclohexyloxy)-7-methyl-2H-isoquinolin-1-one]
